Test results from US20060069132A1, “Azolecarboxamide herbicides” (priority 2004, published 2006).

Legend:
blackgrass = test: Test B postemergence herbicide test; format: in vivo, Alopecurus myosuroides; settings: Postemergence, scale 0 (no effect) to 100 (complete control); for Blackgrass plant response rating: 125 g ai/ha; for Plant response rating, Blackgrass: 500 g ai/ha, visual rating after 13 to 15 days
In short: (§1)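 Paddy species grown to the 2-leaf stage under flooding; blackgrass sprayed postemergence at 2–18 cm (1- to 4-leaf stage). Plants kept in a greenhouse for 13 to 15 days, then visually rated against controls on 0 (no effect) to 100 (complete control).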

rice = test: Test B flooded paddy test; format: in vivo, Oryza sativa; settings: 1000 g ai/ha, visual rating, scale 0 to 100 (0 no effect, 100 complete control), 13 to 15 days
In short: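 Each value is a visual 0–100 response rating taken against controls 13 to 15 days after treatment in the greenhouse. Plants received formulated chemical postemergence at the 1- to 4-leaf stage or, in flooded paddy, at the 2-leaf stage.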

large crabgrass = test: Test B pre-/postemergence herbicide test; format: in vivo, Digitaria sanguinalis; settings: for Plant response rating, Crabgrass, Large: visual rating after 13 to 15 days
In short: (§2)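 Evaluation is visual, comparing treated with control plants on a scale where 0 means no effect and 100 means full control. Treatments were preemergence, or postemergence on seedlings 2–18 cm tall, and held 13–15 days in the greenhouse.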

barnyardgrass [1] = test: Test B pre-/postemergence herbicide test; format: in vivo, Echinochloa crus-galli; settings: for Plant response rating, Barnyardgrass: visual rating after 13 to 15 days
In short: (§3)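 Test chemicals in a non-phytotoxic solvent mixture with surfactant were applied preemergence to seeded species and postemergence to plants 2-18 cm tall (1- to 4-leaf stage); rice and barnyardgrass were also tested in a flooded paddy at the 2-leaf stage. Visual rating versus controls after 13-15 days in greenhouse, scale 0 (no effect) to 100 (complete control).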

corn = test: Test B pre-/postemergence herbicide test; format: in vivo, Zea mays
In short: as §2

[2] = system: small flower umbrella sedge; test: Test B flooded paddy test; format: in vivo, Cyperus difformis; settings: 1000 g ai/ha, visual rating, scale 0 to 100 (0 no effect, 100 complete control), 13 to 15 days
In short: as §1

wheat = test: Test B postemergence herbicide test; format: in vivo, Triticum aestivum; settings: Postemergence, 500 g ai/ha; visual rating after 13 to 15 days, scale 0 (no effect) to 100 (complete control)
In short: (§4)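 Scale 0–100: zero equals no visible effect, 100 complete control, judged by eye relative to controls. Timing: 13 to 15 days in greenhouse post-treatment. Growth stage at spraying: two leaves (paddy) or one to four leaves, 2–18 cm (postemergence).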

cocklebur = test: Test B pre-/postemergence herbicide test; format: in vivo, Xanthium strumarium; settings: for Plant response rating, Cocklebur: visual rating after 13 to 15 days
In short: as §3

Surinam grass = test: Test B pre-/postemergence herbicide test; format: in vivo, Urochloa decumbens; settings: for Surinam Grass plant response rating: Preemergence, scale 0 to 100
In short: as §2

ducksalad = test: Test B flooded paddy test; format: in vivo, Heteranthera limosa; settings: 1000 g ai/ha, visual rating, scale 0 to 100 (0 no effect, 100 complete control), 13 to 15 days
In short: as §1

giant foxtail = test: Test B pre-/postemergence herbicide test; format: in vivo, Setaria faberi
In short: as §2

pigweed = test: Test B pre-/postemergence herbicide test; format: in vivo, Amaranthus retroflexus; settings: for Pigweed plant response rating: Preemergence, scale 0 to 100
In short: as §2

wild oat = test: Test B postemergence herbicide test; format: in vivo, Avena fatua; settings: Postemergence, scale 0 (no effect) to 100 (complete control); for Oat, Wild plant response rating: 125 g ai/ha; for Plant response rating, Oat, Wild: 500 g ai/ha, visual rating after 13 to 15 days
In short: as §4

lambsquarters = test: Test B pre-/postemergence herbicide test; format: in vivo, Chenopodium album
In short: as §2

barnyardgrass [3] = test: Test B flooded paddy test; format: in vivo, Echinochloa crus-galli; settings: 1000 g ai/ha, visual rating, scale 0 to 100 (0 no effect, 100 complete control), 13 to 15 days
In short: as §1

morningglory = test: Test B pre-/postemergence herbicide test; format: in vivo, Ipomoea coccinea
In short: as §3

[4] = Postemergence, 125 g ai/ha, scale 0 (no effect) to 100 (complete control)
[5] = Postemergence, 500 g ai/ha, scale 0 (no effect) to 100 (complete control)
[6] = Preemergence, 500 g ai/ha, scale 0 to 100
[7] = Postemergence, 500 g ai/ha, visual rating after 13 to 15 days, scale 0 (no effect) to 100 (complete control)
[8] = preemergence, 125 g ai/ha, 0 to 100 scale, 0 is no effect, 100 is complete control

Row | SMILES | Blackgrass plant response rating (blackgrass) | Plant response rating, Blackgrass (blackgrass) | Rice plant response rating (rice) | Crabgrass, Large plant response rating (large crabgrass; [4]) | Plant response rating, Crabgrass, Large (large crabgrass; [5]) | Crabgrass, Large plant response rating (large crabgrass; [6]) | Barnyardgrass plant response rating (barnyardgrass [1]; [4]) | Plant response rating, Barnyardgrass (barnyardgrass [1]; [5]) | Barnyardgrass plant response rating (barnyardgrass [1]; [6]) | Corn plant response rating (corn; [6]) | Sedge, Umbrella plant response rating [2] | Plant response rating, Wheat (wheat) | Cocklebur plant response rating (cocklebur; [4]) | Plant response rating, Cocklebur (cocklebur; [5]) | Cocklebur plant response rating (cocklebur; [6]) | Plant response rating, Surinam Grass (Surinam grass; [7]) | Surinam Grass plant response rating (Surinam grass; 500 g ai/ha) | Plant response rating, Surinam Grass (Surinam grass; [8]) | Ducksalad plant response rating (ducksalad) | Foxtail, Giant plant response rating (giant foxtail; [4]) | other results
1 | CCN(C)C(=O)c1cccc(NC(=O)c2cc(C(C)(C)C)nn2CC)c1 [Compound 48] | 0 | 10 | 80 | 10 | 20 | 80 | 40 | 60 | 90 | 0 | 80 | 20 | 0 | 70 | 50 | 50 | 80 | 10 | 80 | 20 | Corn plant response rating (corn; [4]): 0; Plant response rating, Corn (corn; [7]): 30; Plant response rating, Foxtail, Giant (giant foxtail; [7]): 30; Foxtail, Giant plant response rating (giant foxtail; [6]): 90; Plant response rating, Foxtail, Giant (giant foxtail; [8]): 70; Plant response rating, Pigweed (pigweed; [7]): 70; Pigweed plant response rating (pigweed; 500 g ai/ha): 100; Plant response rating, Pigweed (pigweed; [8]): 100; Oat, Wild plant response rating (wild oat): 10; Plant response rating, Oat, Wild (wild oat): 30; Lambsquarters plant response rating (lambsquarters; [4]): 60; Plant response rating, Lambsquarters (lambsquarters; [7]): 90; Lambsquarters plant response rating (lambsquarters; [6]): 90; Plant response rating, Lambsquarters (lambsquarters; [8]): 90; Barnyardgrass plant response rating (barnyardgrass [3]): 80; Morningglory plant response rating (morningglory; [4]): 0; Plant response rating, Morningglory (morningglory; [7]): 50; Morningglory plant response rating (morningglory; [6]): 40; Plant response rating, Morningglory (morningglory; [8]): 10
2 | C=Cn1nc(C(C)(C)C)cc1C(=O)Nc1cccc(C(=O)NCC)c1 [Compound 33] | 20 | 20 | 60 | 20 | 30 | 100 | 20 | 30 | 90 | 30 | 90 | 30 | 80 | 100 | 30 | 30 | 80 | 30 | 90 | 30 | Plant response rating, Foxtail, Giant (giant foxtail; [7]): 30; Foxtail, Giant plant response rating (giant foxtail; [6]): 100; Plant response rating, Foxtail, Giant (giant foxtail; [8]): 80; Plant response rating, Pigweed (pigweed; [7]): 90; Pigweed plant response rating (pigweed; 500 g ai/ha): 100; Plant response rating, Pigweed (pigweed; [8]): 100; Oat, Wild plant response rating (wild oat): 10; Plant response rating, Oat, Wild (wild oat): 10; Lambsquarters plant response rating (lambsquarters; [4]): 90; Plant response rating, Lambsquarters (lambsquarters; [7]): 90; Lambsquarters plant response rating (lambsquarters; [6]): 100; Plant response rating, Lambsquarters (lambsquarters; [8]): 100; Barnyardgrass plant response rating (barnyardgrass [3]): 90; Plant response rating, Morningglory (morningglory; [8]): 10
